Measurements from patent publication EP4653000A1, “INHIBITORS OF PSEUDOMONAS AERUGINOSA ELASTASE (LASB) FOR THE TREATMENT OF PSEUDOMONAS KERATITIS” (Helmholtz-Zentrum für Infektionsforschung GmbH, priority 2024, dated 2025).

How the values were obtained:
[1] = tested on: P. aeruginosa strain PA54; assay: Antibiotic susceptibility / minimum inhibitory concentration (MIC) of strain PA54; assay type: cell-based, Pseudomonas aeruginosa; settings: strain PA54, clinical isolate from eye wound swab
Description: Pseudomonas aeruginosa. The P. aeruginosa strain PA54 was employed to induce an experimental bacterial keratitis in the aforementioned C57BL/6N mice. The strain PA54 was isolated from a human infection (wound swab from the eye) and collected at Saarland University Medical Center's Institute for Medical Microbiology and Hygienics (IMMH) in 2009.

[2] = tested on: P. aeruginosa strain PA54; assay: LasB and desmosin levels in eye homogenate in the experimental bacterial keratitis model (LC-MS/MS); assay type: in vivo, C57BL/6N mice; settings: for LasB levels in eye homogenate: compared with vehicle (highest levels), p < 0.05, Figure 2 (b)
[3] = Concentration of HIPS-7178 in eye homogenate and serum in the keratitis model (HPLC-MS/MS); assay type: in vivo, C57BL/6N mice; settings: topical 5 µL of 1 mg/mL every eight hours along 72h; Figure 2 (a)
Protocol: Animals. The animal experiments were approved by Saarland University's Animal Welfare Committee (Application number: 17/2021) and conducted in accordance with German and European recommendations and guidelines for the ethical use of animals. The laboratory animals were all C57BL/6N female eight to eleven months old mice. Unlimited access to water and show was secured. Temperature was closely maintained around 22 °C and relative air humidity around 50%. Light and darkness alternated at twelve-hour intervals. All laboratory animals were purchased from Charles River GmbH, Sulzfeld, Germany.
Infection procedure. Anesthesia and infection were performed as previously published. […]
Documentation and Treatment. […] Keratitis severity was visualized using a stereomicroscope (Leitz ELVAR, Wetzlar, Germany) at 16× magnification combined with a high-resolution microscope digital camera (Seben GmbH, Berlin, Germany) and evaluated using a previously described clinical scoring scheme (Lyu et al., 2020). […] The body weight of the mice was measured daily and used as welfare indicator. General condition and behavior were also recorded daily. […]

| Compound | sensibility of PA54 (multidrug-resistant classification) [1] | LasB levels in eye homogenate [2] | also measured |
| --- | --- | --- | --- |
| CC(C)(O/N=C(\C(=O)N[C@@H]1C(=O)N2C(C(=O)[O-])=C(C[n+]3ccccc3)CS[C@H]12)c1csc(N)n1)C(=O)O [ceftazidime] | lacking sensibility | – | – |
| CO/N=C(\C(=O)N[C@@H]1C(=O)N2C(C(=O)[O-])=C(C[N+]3(C)CCCC3)CS[C@H]12)c1csc(N)n1 [cefepime] | lacking sensibility | – | – |
| C[C@@H]1O[C@@H]1P(=O)(O)O [fosfomycin] | lacking sensibility | – | – |
| C[C@@H](O)[C@H]1C(=O)N2C(C(=O)O)=C(S[C@@H]3CN[C@H](C(=O)N(C)C)C3)[C@H](C)[C@H]12 [meropenem] | – | reduced levels | Desmosin levels in eye ([2]; compared with uninfected control, Figure 2 (c)): similarly high levels as uninfected group |
| CC(=O)c1ccc(NC(=O)[C@@H](NC(=O)C(CC(C)C)P(=O)(O)O)C(C)C)cc1 (some centres unmarked) [HIPS-7178] | – | reduced levels | HIPS-7178 concentrations in eye homogenate and serum [3]: similarly high |
| gentamicin | lacking sensibility | – | – |
